Consider ten compounds from US9518015B2, “EP1 receptor ligands” (LABORATORIOS DEL DR. ESTEVE, S.A., priority 2011, dated 2016).

For assay [1], the target named is T1, human EP1 receptor (Homo sapiens, UniProt P34995).
T1 sequence (P34995 1-402): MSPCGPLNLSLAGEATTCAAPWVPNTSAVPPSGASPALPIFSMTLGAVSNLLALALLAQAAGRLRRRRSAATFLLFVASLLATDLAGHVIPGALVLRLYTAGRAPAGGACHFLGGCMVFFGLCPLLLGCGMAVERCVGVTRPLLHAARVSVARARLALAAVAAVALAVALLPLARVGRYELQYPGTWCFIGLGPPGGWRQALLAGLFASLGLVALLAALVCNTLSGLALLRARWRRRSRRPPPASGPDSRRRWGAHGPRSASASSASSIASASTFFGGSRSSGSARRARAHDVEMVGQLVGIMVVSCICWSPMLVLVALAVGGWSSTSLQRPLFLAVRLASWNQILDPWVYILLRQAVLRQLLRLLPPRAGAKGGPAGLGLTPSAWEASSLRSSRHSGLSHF
The assay is described as follows: Test 3: Measurement of IP1 responses by HTRF, HEK-293 cells stably expressing human EP1 receptors incubated o/n, PGE2 10 nM. Particulars: for Results of Test 3 (Functional assay), % inh: at 10 μM; for inhibition at 10 µM: HEK293, read-out: Results of Test 3 (Functional assay), % inh. The arrangement: expressed in transfected cells. Type of assay: cell-based. On the procedure: Test 3: Measurement of IP1 Responses by Homogeneous Time Resolved Fluorescence
IP1 measurements on HEK-293 cells that stably expressed human EP1 receptors were performed by using a system based on Homogeneous Time Resolved Fluorescense (HTRF) (Gabriel et al., 2003). This technology allows the direct measurement of IP1 in living cells. The principle of this assay is based on competition between IP1 produced by cells and IP1-d2 conjugate for the binding with monoclonal anti-IP1-cryptate conjugate. The HTRF IP1 kit from CisBio was used according to the manufacturer's directions. The experimental procedure was performed as stated below.
40,000 cells per well were added to 96-well culture plates in 40 μl of Optimem and incubated o/n at 37° C. Optimem was replaced by 40 μl of stimulation buffer (supplied by the kit) and compounds were then added in 20 μl of stimulation buffer and incubated at 37° C. for 15 minutes followed by 10 μl of PGE2 to a final concentration of 10 nM. After 90 minutes at 37° C., the reaction was stopped lysing the cells with a mixture of 15 μl of cryptate and 15 μl of IP1-d2 prepared in the lysis buffer supplied by the manufacturer. Plates were incubated for an additional hour at room temperature and read at 665 nm/620 nm using an UltraEvolution Plate reader (Tecan).
Antagonist percentage inhibition was calculated relating compounds activity to the 0% inhibition of the wells incubated with 10 nM PGE2 alone and 100% inhibition of the wells incubated with 10 nM PGE2 plus 10 μM of the reference antagonist.
For orientation: In TR-FRET formats the signal depends on donor and acceptor labels being close together.

The target in assay [2] is T1, human EP1 receptor. The assay can be described thus: Test 1: Human EP1 receptor radioligand binding assay ([3H]-PGE2, transfected HEK-293 cell membranes). The arrangement: expressed in transfected cells; host or cells: HEK-293 cell membranes. The following applies: for Results of Test 1 (Binding assay), % inh: at 10 μM; for inhibition at 10 µM: read-out: Results of Test 1 (Binding assay), % inh. In a few lines: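 Membranes from transfected HEK-293 cells (30 μg protein) incubated with 10 nM [3H]-PGE2 in pH 6.0 MES buffer for 60 min at 25° C., then filtered and counted by scintillation. Percent inhibition set against total binding and 10 μM PGE2 non-specific binding.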

The structures appear in SMILES notation. Counter-ions that a name gives are not always drawn.

Take `O=C([O-])c1ccnc2c1CCN2Cc1cc(Cl)ccc1OCc1ccc(F)cc1.[Na+]` [Example 220]: the “Results of Test 3 (Functional assay), % inh” value on human EP1 receptor [1] is “$ (% inh > 75)”. Moreover, on human EP1 receptor [2], the “Results of Test 1 (Binding assay), % inh” value was “# (% inh > 75)”.

Regarding `CC(C)(F)COc1ccc(Cl)cc1CN1CCc2c(C(=O)[O-])ccnc21.[Na+]` [Example 221], the “Results of Test 3 (Functional assay), % inh” value on human EP1 receptor [1] was “$ (% inh > 75)”. In addition, the “Results of Test 1 (Binding assay), % inh” value on human EP1 receptor [2] is listed as “# (% inh > 75)”.

On to `O=C(O)c1cncc2c1CCCN2Cc1cc(Cl)ccc1OCc1ccc(Cl)cc1F` [Example 226, Sodium 1-{5-chloro-2-[(4-chloro-2-fluorobenzyl)oxy]benzyl}-1,2,3,4-tetrahydro-1,7-naphthyridine-5-carboxylate], for which the inhibition at 10 µM on human EP1 receptor [1] and on human EP1 receptor [2] was greater than 75% each time.

Consider `O=C(O)c1cncc2c1CCCN2Cc1cc(Cl)ccc1OCc1ccc(F)cc1F` [Example 227], for which the inhibition at 10 µM on human EP1 receptor [1] and at human EP1 receptor [2] was greater than 75% in each case.

In the case of `CC(C)COc1ccc(Cl)cc1CN1CCc2c(C(=O)NS(C)(=O)=O)ccnc21` [Example 234, 1-(5-chloro-2-isobutoxybenzyl)-N-(methylsulfonyl)-2,3-dihydro-1H-pyrrolo[2,3-b]pyridine-4-carboxamide sodium salt], the inhibition at 10 µM at human EP1 receptor [1] and on human EP1 receptor [2] was greater than 75% in each case.

On to `CN(C)S(=O)(=O)NC(=O)c1cccc2c1CCCN2Cc1cc(Cl)ccc1OCc1ccc(Cl)cc1F` [Example 237, 1-{5-chloro-2-[(4-chloro-2-fluorobenzyl)oxy]benzyl}-N-[(dimethylamino)sulfonyl]-1,2,3,4-tetrahydroquinoline-5-carboxamide sodium salt], for which the inhibition at 10 µM at human EP1 receptor [1] is 45 to 75%; on human EP1 receptor [2], greater than 75%.

In the case of `O=C(O)c1cncc2c1CCCN2Cc1ccccc1OCc1ccc(Cl)cc1F` [Example 240], the inhibition at 10 µM at human EP1 receptor [1] and on human EP1 receptor [2] was greater than 75% each time.

Consider `CC(C)(F)COc1ccc(Cl)cc1CN1CCCc2c(C(=O)O)cncc21` [Example 242], for which the inhibition at 10 µM on human EP1 receptor [1] and on human EP1 receptor [2] was greater than 75% in each case.

Turning to `O=C(O)c1cncc2c1CCCN2Cc1cc(F)ccc1OCc1ccc(F)cc1F` [Example 243], the inhibition at 10 µM on human EP1 receptor [1] and on human EP1 receptor [2] was greater than 75% throughout.

Take `O=C(O)c1cncc2c1CCN2Cc1cc(Cl)ccc1OCc1ccc(Cl)cc1F` [Example 248, sodium 1-{5-chloro-2-[(4-chloro-2-fluorobenzyl)oxy]benzyl}-2,3-dihydro-1H-pyrrolo[2,3-c]pyridine-4-carboxylate]: the inhibition at 10 µM on human EP1 receptor [1] and at human EP1 receptor [2] was greater than 75% in each case.
